Measurements published in ChEMBL document CHEMBL4665890, “N-Trifluoromethyl Amines and Azoles: An Underexplored Functional Group in the Medicinal Chemist's Toolbox” (J Med Chem, 2020).

Assays:
[1] = Stability in neat DMSO at 10 mM at room temperature under air without protection from sunlight measured after 1 month by LC-MS analysis; type: physicochemical; settings: 730 h, 10000 µM, time 1 months
[2] = Stability in neat […] DMSO/H2O 1:4 mixture assessed as compound hydrolysis at 10 mM at room temperature under air without protection from sunlight measured after 0.5 hrs by LC-MS analysis; type: physicochemical; settings: 10000 µM
[3] = Stability in neat […] DMSO/H2O 1:4 mixture assessed as compound hydrolysis at 10 mM at room temperature under air without protection from sunlight measured after 1 month by LC-MS analysis; type: physicochemical; settings: 730 h, 10000 µM, time 1 months
[4] = Stability in neat […] DMSO/H2O 1:4 mixture assessed as compound hydrolysis at 10 mM at room temperature under air without protection from sunlight measured after 1 month by NMR analysis; type: physicochemical; settings: 730 h, 10000 µM, time 1 months
[5] = in vitro; settings: human, liver microsomes
Description: Metabolic stability in human liver microsomes

[6] = physchem; settings: buffer, pH 7.4
[7] = physchem; settings: buffer, pH 7.4; remark: listed apart in the source
[8] = in vitro; settings: human, Caco-2
Description: Passive permeability from apical to basolateral side in human Caco-2 cells

[9] = physchem; settings: 0.1 M HCl solution, pH 1
Description: Half life in 0.1 M HCl solution at pH 1.0 at 25 degC by UPLC analysis

[10] = physchem; settings: 20 mM sodium phosphate buffer, pH 7.4
Description: Half life in 20 mM sodium phosphate buffer at pH 7.4 at 25 degC by UPLC analysis

[11] = physchem; settings: 20 mM sodium carbonate buffer, pH 10
Description: Half life in 20 mM sodium carbonate buffer at pH 10 at 25 degC by UPLC analysis

[12] = Stability in neat […] DMSO/H2O 1:4 mixture assessed as compound hydrolysis at 10 mM at room temperature under air without protection from sunlight measured after 24 hrs by LC-MS analysis; type: physicochemical; settings: read-out: Drug degradation
[13] = physchem
Description: Dissociation constant, pKa1 of compound by spectrophotometry

[14] = physchem; remark: listed apart in the source
Description: Dissociation constant, pKa2 of compound by spectrophotometry

[15] = Stability in presence of glutathione by LC-MS analysis; type: physicochemical; settings: solution with glutathione
[16] = Stability in absence of glutathione by LC-MS analysis; type: physicochemical; settings: gsh

| Structure (SMILES) | Stabilty [1] | microsomal CLint [5] | logD [6] | chromatographic logD [7] | Papp A→B [8] | also measured |
| --- | --- | --- | --- | --- | --- | --- |
| Cc1ccc(N(C)C(F)(F)F)cc1 | Stable | – | – | – | – | Stabilty [2]: Unstable |
| FC(F)(F)n1cccn1 | Stable | – | – | – | – | Stabilty [3]: Stable; Stabilty [4]: Stable |
| Cn1cc(Nc2nc(N[C@H]3CC[C@H](N(C)C)CC3)c3cccn3n2)cn1 | – | < 3 µL/min/mg | 0.6 | < 0 | 2.4 ×10⁻⁶ cm/s | – |
| CC(=O)c1ccc(N2CCN(C(=O)c3cnn(C(C)C)c3)CC2)cc1 | – | < 4.2 µL/min/mg | 1.8 | 1.5 | 40 ×10⁻⁶ cm/s | – |
| Cc1cc(NS(=O)(=O)c2ccc(N(C)C)cc2)no1 | – | – | 0.6 | 1.3 | – | – |
| CCCc1nn(C)c2c(=O)[nH]c(-c3cc(S(=O)(=O)N4CCN(C(F)(F)F)CC4)ccc3CC)nc12 | – | – | > 4 | > 5.3 | – | half-life [9]: < 31.2 h; half-life [10]: < 19.2 h; half-life [11]: < 12 h |
| CN(c1ccccc1)C(F)(F)F | Stable | – | – | – | – | Stabilty [2]: Unstable |
| CC(=O)c1ccc(N2CCN(C(=O)c3cnn(C(C)(C)C)c3)CC2)cc1 | – | < 4.5 µL/min/mg | 2.2 | 2.2 | 66 ×10⁻⁶ cm/s | – |
| CN(c1ccc(C(F)(F)F)cc1)C(F)(F)F | Stable | – | – | – | – | degraded at 24 h, 10000 µM [12]: 90% |
| COc1ccc(CC(=O)Nc2cnn(C(F)(F)F)c2)cc1OC | – | 53 µL/min/mg | 2.4 | 2.2 | 56 ×10⁻⁶ cm/s | half-life [9]: 288 h; half-life [10]: > 1730 h; half-life [11]: > 1730 h |
| Cc1cc(NS(=O)(=O)c2ccc(N(C)C(F)(F)F)cc2)no1 | – | – | 1.6 | 1.5 | – | half-life [9]: 4.8 h; half-life [10]: 9.6 h; half-life [11]: 7.2 h |
| FC(F)(F)n1c(-c2cscn2)nc2ccccc21 | – | 39 µL/min/mg | 3 | 3.3 | 58 ×10⁻⁶ cm/s | half-life [9]: > 1730 h; half-life [10]: > 1730 h; half-life [11]: > 1730 h; pKa [13]: < 2 |
| CN(C)[C@H]1CC[C@H](Nc2nc(Nc3cnn(C(F)(F)F)c3)nn3cccc23)CC1 | – | < 3 µL/min/mg | 2.2 | 2.2 | 12 ×10⁻⁶ cm/s | half-life [9]: > 1730 h; half-life [10]: > 1730 h; half-life [11]: 1700 h |
| CCCc1nn(C)c2c(=O)[nH]c(-c3cc(S(=O)(=O)N4CCN(C)CC4)ccc3CC)nc12 | – | – | 2.7 | 3.3 | – | – |
| Cn1c(-c2cscn2)nc2ccccc21 | – | 172 µL/min/mg | 2.3 | 1.5 | 72 ×10⁻⁶ cm/s | pKa [13]: 4.9 |
| CN(c1ccc(F)cc1)C(F)(F)F | Stable | – | – | – | – | – |
| CC(=O)c1ccc(N2CCN(C(=O)c3cnn(C)c3)CC2)cc1 | – | < 3 µL/min/mg | 1.1 | 0.6 | 42 ×10⁻⁶ cm/s | – |
| CN(c1cccc(F)c1)C(F)(F)F | Stable | – | – | – | – | – |

| Structure (SMILES) | Stabilty [1] | microsomal CLint [5] | logD [6] | chromatographic logD [7] | Papp A→B [8] | also measured |
| --- | --- | --- | --- | --- | --- | --- |
| CN(C)[C@H]1CC[C@H](Nc2nc(Nc3cnn(C(C)(C)C)c3)nn3cccc23)CC1 | – | < 3 µL/min/mg | 1.7 | 1.5 | 11 ×10⁻⁶ cm/s | – |
| CCN(c1ccccc1)C(F)(F)F | Stable | – | – | – | – | Stabilty [2]: Unstable |
| FC(F)(F)N1CCCc2ccccc21 | Stable | – | – | – | – | Stabilty [2]: Unstable |
| FC(F)(F)N1CCc2ccccc21 | Stable | – | – | – | – | Stabilty [2]: Unstable |
| Cc1ccc(-c2cn(C)cn2)cc1NC(=O)c1ccc(OCc2ccccn2)cc1 | – | 4.8 µL/min/mg | 2.7 | 2.2 | 72 ×10⁻⁶ cm/s | pKa [13]: 5.8; pKa [14]: 3.9 |
| CCCCN(C)c1ccc(C(=O)OCCN(C)C)cc1 | – | – | 2.8 | 3.3 | – | – |
| CCCCN(C(=O)F)c1ccc(C(=O)OCCN(C)C)cc1 | – | – | – | – | – | half-life [15]: 1.1 h; half-life [16]: 3.95 h |
| CCOC(=O)N(Cc1ccccc1)C(F)(F)F | Stable | – | – | – | – | Stabilty [2]: Unstable |
| CC(C)n1cc(Nc2nc(N[C@H]3CC[C@H](N(C)C)CC3)c3cccn3n2)cn1 | – | < 3 µL/min/mg | 1.4 | 1.1 | 8.4 ×10⁻⁶ cm/s | – |
| COc1ccc(CC(=O)Nc2cnn(C(C)(C)C)c2)cc1OC | – | < 4.1 µL/min/mg | 2 | 1.6 | 45 ×10⁻⁶ cm/s | – |
| COc1ccc(CC(=O)Nc2cnn(C(C)C)c2)cc1OC | – | < 3.3 µL/min/mg | 1.6 | 0.9 | 44 ×10⁻⁶ cm/s | – |
| FC(F)(F)n1cnc2ccccc21 | Stable | – | – | – | – | Stabilty [3]: Stable; Stabilty [4]: Stable |
| COc1ccc(N(C)C(F)(F)F)cc1 | Stable | – | – | – | – | Stabilty [2]: Unstable |
| CCCCN(c1ccc(C(=O)OCCN(C)C)cc1)C(F)(F)F | – | – | > 4 | 4.9 | – | half-life [9]: < 14.4 h; half-life [10]: < 14.4 h; half-life [11]: < 14.4 h |
| COc1ccc(CC(=O)Nc2cnn(C)c2)cc1OC | – | < 3 µL/min/mg | 0.9 | 0.1 | 42 ×10⁻⁶ cm/s | – |
| CC(=O)c1ccc(N2CCN(C(=O)c3cnn(C(F)(F)F)c3)CC2)cc1 | – | < 3 µL/min/mg | 1.9 | 2.3 | 71 ×10⁻⁶ cm/s | half-life [9]: 984 h; half-life [10]: > 1730 h; half-life [11]: 408 h |
| FC(F)(F)N1CCN(c2ccccc2)CC1 | Stable | – | – | – | – | Stabilty [2]: Unstable |
| CN(c1ccc(C#N)cc1)C(F)(F)F | Stable | – | – | – | – | degraded at 24 h, 10000 µM [12]: 24% |
